The values below come from patent US20230114241A1, “METHODS OF TREATING EPILEPSY USING THE SAME” (Trevena, Inc., priority 2019, published 2023).

Sequence of human sphingosine-1-phosphate receptor 1 (S1P1) (P21453 whole entry): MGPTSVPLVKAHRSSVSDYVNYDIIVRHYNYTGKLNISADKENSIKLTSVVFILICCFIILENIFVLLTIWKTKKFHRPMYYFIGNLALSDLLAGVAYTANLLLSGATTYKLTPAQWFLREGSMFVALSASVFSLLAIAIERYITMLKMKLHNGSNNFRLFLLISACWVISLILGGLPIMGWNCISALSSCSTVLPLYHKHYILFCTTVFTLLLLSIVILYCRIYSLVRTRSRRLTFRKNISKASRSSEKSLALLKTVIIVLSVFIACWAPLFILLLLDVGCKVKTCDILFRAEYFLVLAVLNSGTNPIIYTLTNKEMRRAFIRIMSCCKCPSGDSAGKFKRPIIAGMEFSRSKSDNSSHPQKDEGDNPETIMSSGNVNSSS

This assay concerns the target human sphingosine-1-phosphate receptor 1 (S1P1) (Homo sapiens, UniProt P21453). Kind of assay: Inhibition of cAMP production (HTRF cAMP HiRange), S1P1 CHO-K1 cells. The assay is classed as cell-based. The settings on record: inhibition of cAMP production; potency; read-out: hS1P1 CAMP pEC50 (converted). On the procedure:
Stable clonal Chinese hamster ovary K1 (CHO-K1) cells co-expressing EA-β-arrestin2 and the human sphingosine-1-phosphate receptor 1 (NM_001400, S1P1) with a C-terminal Prolink™ tag were purchased from DiscoverX corporation (Cat #: 93-0207C2).
Cell lines were cultured in AssayComplete™ Media 6 (DiscoverX Corporation, Cat #: 920018GF2) at 37° C. and 5% CO2 in a humidified CO2 and temperature-controlled incubator. To begin assay plating, cells were washed with Dulbecco's phosphate buffered saline (CellGro, Cat #: 21-031-CV) and lifted from the culturing flask by incubation (37° C., 5 min) with CellStripper (Cellgro, Cat #: 25-056-CI). […] Plated cells were incubated overnight at 37° C. and 5% CO2 in a humidified CO2 and temperature-controlled incubator.
Agonist-promoted G-protein responses were determined by measuring changes in intracellular cAMP using the HTRF® cAMP HiRange kit (CisBio, Cat #: 62AM6PEJ) based on time-resolved fluorescence resonance energy transfer (TR-FRET) technology. […] Following a 30-minute incubation at 37° C. and 5% CO2 in a humidified CO2 and temperature-controlled incubator, the components of the cAMP HiRange kit were added as per the manufacturer's instructions. After an hour incubation at room temperature, plates were analyzed by a BMG PheraStar microplate reader.
These values are normalized to fingolimod, a known agonist of the sphingosine-1-phosphate 1 receptor.
As to `CC(C)n1nnc2cc(-c3nc(-c4ccccc4Br)co3)ccc21` [Compound 183, 5-[4-(2-bromophenyl)-1,3-oxazol-2-yl]-1-(propan-2-yl)-1H-1,2,3-benzotriazole], the EC50 is below 316 nM.
Regarding `CC(C)n1nnc2cc(-c3noc(C4CCC(F)(F)CC4)n3)ccc21` [Compound 125, 5-[5-(4,4-difluoro-cyclohexyl)-1,2,4-oxadiazol-3-yl]-1-(propan-2-yl)-1H-1,2,3-benzotriazole], the EC50 is above 316 nM.
`Brc1ccccc1-c1nc(-c2ccc3c(c2)nnn3Cc2cccnc2)no1` [Compound 283, 5-(2-bromophenyl)-3-(1-(pyridin-3-ylmethyl)-1H-benzo[d][1,2,3]triazol-5-yl)-1,2,4-oxadiazole]: the EC50 was above 316 nM.
For `CC(C)n1nnc2cc(-c3nc(-c4ccc(OCc5ccccc5)cc4)no3)ccc21` [Compound 53, 5-{3-[4-(benzyloxy)phenyl]-1,2,4-oxadiazol-5-yl}-1-(propan-2-yl)-1H-1,2,3-benzotriazole], the EC50 was above 316 nM.
With `CC(C)n1nnc2cc(-c3ncc(-c4cccc(F)c4)s3)ccc21` [Compound 110, 5-(3-fluorophenyl)-2-(1-isopropyl-1H-benzo[d][1,2,3]triazol-5-yl)thiazole], the EC50 was above 316 nM.
Consider `Cc1ccccc1-c1noc(-c2ccc3c(c2)nnn3CC(C)(C)O)n1` [Compound 139, 2-methyl-1-{5-[3-(2-methylphenyl)-1,2,4-oxadiazol-5-yl]-1H-1,2,3-benzotriazol-1-yl}propan-2-ol], for which the EC50 is below 316 nM.
`c1cc(-c2noc(-c3ccc4c(c3)nnn4C3CC3)n2)ccn1` [Compound 295, 1-cyclopropyl-5-[3-(pyridin-4-yl)-1,2,4-oxadiazol-5-yl]-1H-1,2,3-benzotriazole]: the EC50 is above 316 nM.
With `COc1cc(-c2nc(-c3ccc4c(c3)nnn4C(C)C)no2)ccn1` [Compound 116, 3-(1-isopropyl-1H-benzo[d][1,2,3]triazol-5-yl)-5-(2-methoxypyridin-4-yl)-1,2,4-oxadiazole], the EC50 is above 316 nM.
To `CC(C)Oc1ccccc1-c1noc(-c2ccc3c(cnn3C(C)C)c2)n1` [Compound 334, 3-(2-isopropoxy-phenyl)-5-(1-isopropyl-1H-indazol-5-yl)-1,2,4-oxadiazole] belongs above 316 nM; to `COc1ccccc1-c1noc(-c2ccc3c(c2)nnn3C2CC2)n1` [Compound 173, 1-cyclopropyl-5-[3-(2-methoxyphenyl)-1,2,4-oxadiazol-5-yl]-1H-1,2,3-benzotriazole], below 316 nM; to `Cc1cc(-c2nc(-c3ccc4c(c3)nnn4C(C)C)no2)cc(C)n1` [Compound 156, 5-(2,6-dimethyl-pyridin-4-yl)-3-(1-isopropyl-1H-benzo[d][1,2,3]triazol-5-yl)-1,2,4-oxadiazole], below 316 nM.
Consider `Cc1ccncc1-c1nc(-c2ccc3c(c2)nnn3C(C)C)no1` [Compound 100, 3-(1-isopropyl-1H-benzo[d][1,2,3]triazol-5-yl)-5-(4-methyl-pyridin-3-yl)-1,2,4-oxadiazole], for which the EC50 was above 316 nM.
As for `CC(C)n1ncc2cc(-c3nc(-c4cccc5c4OCO5)no3)ccc21` [Compound 336, 3-(benzo[d][1,3]dioxol-4-yl)-5-(1-isopropyl-1H-indazol-5-yl)-1,2,4-oxadiazole], the EC50 is below 316 nM.
To `COc1cccc(F)c1-c1noc(-c2ccc3c(cnn3C(C)C)c2)n1` [Compound 338, 3-(2-fluoro-6-methoxy-phenyl)-5-(1-isopropyl-indazol-5-yl)-1,2,4-oxadiazole] belongs above 316 nM; to `COc1cccnc1-c1noc(-c2ccc3c(c2)nnn3C2CCCC2)n1` [Compound 203, 1-cyclopentyl-5-[3-(3-methoxy-pyridin-2-yl)-1,2,4-oxadiazol-5-yl]-1H-1,2,3-benzotriazole], above 316 nM.
With `Cc1oc(-c2ccc3c(c2)nnn3C(C)C)nc1-c1ccccc1` [Compound 247, 5-(5-methyl-4-phenyl-1,3-oxazol-2-yl)-1-(propan-2-yl)-1H-1,2,3-benzotriazole], the EC50 is above 316 nM.
